# System: Xanthomonas oryzae pv. oryzae (Xoo) PXO99A
# Experiment: microbe, parasite or virus in culture
# Details: read-out: EC50 (mg/L)
row,Compound,EC50 [mg/L]
1,C=C[C@]1(C)C[C@@H](OC(=O)CSc2ncc(OC)c(OS(=O)(=O)CC)n2)[C@]2(C)[C@H](C)CC[C@]3(CCC(=O)[C@H]32)[C@@H](C)[C@@H]1O [J1],0.41 ± 0.15
2,C=C[C@]1(C)C[C@@H](OC(=O)CSc2ncc(OC)c(OS(=O)(=O)c3ccc(C)cc3)n2)[C@]2(C)[C@H](C)CC[C@]3(CCC(=O)[C@H]32)[C@@H](C)[C@@H]1O [J2],0.26 ± 0.17
3,C=C[C@]1(C)C[C@@H](OC(=O)CSc2ncc(OC)c(OS(=O)(=O)c3ccc(C(F)(F)F)cc3)n2)[C@]2(C)[C@H](C)CC[C@]3(CCC(=O)[C@H]32)[C@@H](C)[C@@H]1O [J3],0.81 ± 0.08
4,C=C[C@]1(C)C[C@@H](OC(=O)CSc2ncc(OC)c(OS(=O)(=O)c3c(F)cccc3F)n2)[C@]2(C)[C@H](C)CC[C@]3(CCC(=O)[C@H]32)[C@@H](C)[C@@H]1O [J4],0.34 ± 0.04
5,C=C[C@]1(C)C[C@@H](OC(=O)CSc2ncc(OC)c(OS(=O)(=O)c3c(F)c(F)c(F)c(F)c3F)n2)[C@]2(C)[C@H](C)CC[C@]3(CCC(=O)[C@H]32)[C@@H](C)[C@@H]1O [J5],0.77 ± 0.56
6,C=C[C@]1(C)C[C@@H](OC(=O)CSc2ncc(OC)c(OS(=O)(=O)c3c(C)c(C)c(C)c(C)c3C)n2)[C@]2(C)[C@H](C)CC[C@]3(CCC(=O)[C@H]32)[C@@H](C)[C@@H]1O [J6],0.33 ± 0.09
7,C=C[C@]1(C)C[C@@H](OC(=O)CSc2ncc(OC)c(OS(=O)(=O)c3cccc(Br)c3)n2)[C@]2(C)[C@H](C)CC[C@]3(CCC(=O)[C@H]32)[C@@H](C)[C@@H]1O [J7],0.27 ± 0.11
8,C=C[C@]1(C)C[C@@H](OC(=O)CSc2ncc(OC)c(O)n2)[C@]2(C)[C@H](C)CC[C@]3(CCC(=O)[C@H]32)[C@@H](C)[C@@H]1O [J9],0.12 ± 0.02
9,C=C[C@]1(C)C[C@@H](OC(=O)CSc2ncc(OC)c(OS(=O)(=O)c3cccc(F)c3)n2)[C@]2(C)[C@H](C)CC[C@]3(CCC(=O)[C@H]32)[C@@H](C)[C@@H]1O [J10],0.2 ± 0.13
10,C=C[C@]1(C)C[C@@H](OC(=O)CSc2ncc(OC)c(OS(=O)(=O)c3ccc(Br)cc3OC(F)(F)F)n2)[C@]2(C)[C@H](C)CC[C@]3(CCC(=O)[C@H]32)[C@@H](C)[C@@H]1O [J11],0.39 ± 0.27
11,C=C[C@]1(C)C[C@@H](OC(=O)CSc2ncc(OC)c(OS(=O)(=O)c3cccc(Cl)c3F)n2)[C@]2(C)[C@H](C)CC[C@]3(CCC(=O)[C@H]32)[C@@H](C)[C@@H]1O [J12],0.26 ± 0.12
12,C=C[C@]1(C)C[C@@H](OC(=O)CSc2ncc(OC)c(OS(=O)(=O)c3cc(Br)c(F)cc3F)n2)[C@]2(C)[C@H](C)CC[C@]3(CCC(=O)[C@H]32)[C@@H](C)[C@@H]1O [J13],0.22 ± 0.05
13,C=C[C@]1(C)C[C@@H](OC(=O)CSc2ncc(OC)c(OS(=O)(=O)c3ccc(Cl)cc3Br)n2)[C@]2(C)[C@H](C)CC[C@]3(CCC(=O)[C@H]32)[C@@H](C)[C@@H]1O [J14],0.3 ± 0.02
14,C=C[C@]1(C)C[C@@H](OC(=O)CSc2ncc(OC)c(OS(=O)(=O)C3CC3)n2)[C@]2(C)[C@H](C)CC[C@]3(CCC(=O)[C@H]32)[C@@H](C)[C@@H]1O [J15],0.37 ± 0.09
15,C=C[C@]1(C)C[C@@H](OC(=O)CSc2ncc(OC)c(OS(=O)(=O)c3ccc(F)cc3)n2)[C@]2(C)[C@H](C)CC[C@]3(CCC(=O)[C@H]32)[C@@H](C)[C@@H]1O [J16],0.26 ± 0.03
16,C=C[C@]1(C)C[C@@H](OC(=O)CSc2ncc(OC)c(OS(=O)(=O)c3ccc(F)c(F)c3F)n2)[C@]2(C)[C@H](C)CC[C@]3(CCC(=O)[C@H]32)[C@@H](C)[C@@H]1O [J17],0.22 ± 0.09
17,C=C[C@]1(C)C[C@@H](OC(=O)CSc2ncc(OC)c(OS(=O)(=O)c3ccc(C#N)cc3)n2)[C@]2(C)[C@H](C)CC[C@]3(CCC(=O)[C@H]32)[C@@H](C)[C@@H]1O [J18],0.29 ± 0.09
18,C=C[C@]1(C)C[C@@H](OC(=O)CSc2ncc(OC)c(OS(=O)(=O)c3c(C)cc(C)cc3C)n2)[C@]2(C)[C@H](C)CC[C@]3(CCC(=O)[C@H]32)[C@@H](C)[C@@H]1O [J19],0.16 ± 0.06
19,C=C[C@]1(C)C[C@@H](OC(=O)CSc2ncc(OC)c(OS(=O)(=O)c3c(C)c(C)cc(C)c3C)n2)[C@]2(C)[C@H](C)CC[C@]3(CCC(=O)[C@H]32)[C@@H](C)[C@@H]1O [J20],0.35 ± 0.06
20,C=C[C@]1(C)C[C@@H](OC(=O)CSc2ncc(OC)c(OS(=O)(=O)CCCC)n2)[C@]2(C)[C@H](C)CC[C@]3(CCC(=O)[C@H]32)[C@@H](C)[C@@H]1O [J21],2.79 ± 0.39
21,C=C[C@]1(C)C[C@@H](OC(=O)CSc2ncc(OC)c(OS(=O)(=O)c3ccc(Cl)cc3)n2)[C@]2(C)[C@H](C)CC[C@]3(CCC(=O)[C@H]32)[C@@H](C)[C@@H]1O [J22],0.34 ± 0.17
22,C=C[C@]1(C)C[C@@H](OC(=O)CSc2ncc(OC)c(OS(=O)(=O)c3ccc(CC)cc3)n2)[C@]2(C)[C@H](C)CC[C@]3(CCC(=O)[C@H]32)[C@@H](C)[C@@H]1O [J23],0.58 ± 0.07
23,C=C[C@]1(C)C[C@@H](OC(=O)CSc2ncc(OC)c(OS(=O)(=O)c3ccc(OC(F)(F)F)cc3)n2)[C@]2(C)[C@H](C)CC[C@]3(CCC(=O)[C@H]32)[C@@H](C)[C@@H]1O [J24],0.26 ± 0.05

# Biological target: T1, ISXoo15 transposase (Xanthomonas oryzae, UniProt A0A0K0GFE1)
# T1 construct: gene PXO_03433
# T1 sequence (A0A0K0GFE1 1-315): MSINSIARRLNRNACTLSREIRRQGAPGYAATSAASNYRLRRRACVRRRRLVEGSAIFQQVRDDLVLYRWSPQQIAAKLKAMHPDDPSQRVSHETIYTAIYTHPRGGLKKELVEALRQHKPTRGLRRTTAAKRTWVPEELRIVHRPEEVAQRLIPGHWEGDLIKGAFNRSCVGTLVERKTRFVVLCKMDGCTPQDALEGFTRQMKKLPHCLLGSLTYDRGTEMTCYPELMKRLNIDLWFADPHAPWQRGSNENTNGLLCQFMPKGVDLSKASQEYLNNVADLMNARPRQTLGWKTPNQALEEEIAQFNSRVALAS
# Experiment: biochemical
# Details: not given
row,Compound,Kd [nM]
1,C=C[C@]1(C)C[C@@H](OC(=O)CSc2ncc(OC)c(O)n2)[C@]2(C)[C@H](C)CC[C@]3(CCC(=O)[C@H]32)[C@@H](C)[C@@H]1O [J9],187
